{"source": "paper PMC5464344", "about": "“Analgesic and anti‐inflammatory properties of novel, selective, and potent EP4 receptor antagonists” (Pharmacology Research & Perspectives, 2017)", "key": {"COX2 (h)": {"biological_target": "T1, COX2 (h) (Homo sapiens, UniProt P35354)", "T1 construct": "CEREP (contract laboratory that ran the assay)", "T1 sequence (P35354 18-604)": "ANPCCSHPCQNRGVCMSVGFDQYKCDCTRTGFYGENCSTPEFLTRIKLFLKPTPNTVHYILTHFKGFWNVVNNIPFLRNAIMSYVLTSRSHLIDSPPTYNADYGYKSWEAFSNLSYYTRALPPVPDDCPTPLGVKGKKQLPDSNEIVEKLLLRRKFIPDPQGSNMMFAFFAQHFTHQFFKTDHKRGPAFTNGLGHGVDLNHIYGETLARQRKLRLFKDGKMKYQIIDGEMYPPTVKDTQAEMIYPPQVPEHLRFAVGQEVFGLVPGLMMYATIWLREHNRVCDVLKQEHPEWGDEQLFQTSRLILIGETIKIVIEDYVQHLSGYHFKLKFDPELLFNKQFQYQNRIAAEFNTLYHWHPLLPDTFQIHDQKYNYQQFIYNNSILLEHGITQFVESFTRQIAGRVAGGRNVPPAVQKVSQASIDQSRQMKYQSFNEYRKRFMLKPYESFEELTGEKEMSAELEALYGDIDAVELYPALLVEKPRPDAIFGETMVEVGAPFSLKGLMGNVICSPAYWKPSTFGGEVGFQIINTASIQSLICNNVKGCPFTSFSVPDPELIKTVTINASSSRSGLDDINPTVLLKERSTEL", "experiment": "Off-target activity (CEREP), COX2", "type": "biochemical", "conditions": "10 μmol/L; obtained at CEREP (Blanco et al. 2016c); read-out: % Inh COX2 (h)", "description": "(§1) The off‐target activity related to prostaglandin pathway (Table 2) were obtained at CEREP (Blanco et al. 2016c)."}, "[1]": {"biological_target": "T2, TP (TXA2/PGH2) (h); agonist effect (Homo sapiens, UniProt P21731)", "T2 construct": "CEREP (contract laboratory that ran the assay)", "T2 sequence (P21731 1-343)": "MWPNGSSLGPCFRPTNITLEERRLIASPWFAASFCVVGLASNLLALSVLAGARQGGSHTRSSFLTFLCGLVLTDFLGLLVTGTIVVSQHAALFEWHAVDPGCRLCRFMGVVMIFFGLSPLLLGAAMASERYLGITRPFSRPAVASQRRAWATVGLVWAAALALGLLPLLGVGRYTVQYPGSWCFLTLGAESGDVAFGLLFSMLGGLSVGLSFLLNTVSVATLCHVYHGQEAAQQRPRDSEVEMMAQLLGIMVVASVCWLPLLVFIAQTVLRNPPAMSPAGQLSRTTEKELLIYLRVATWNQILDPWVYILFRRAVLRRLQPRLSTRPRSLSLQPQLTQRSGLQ", "experiment": "Off-target activity (CEREP), TP agonist effect", "type": "biochemical", "conditions": "10 μmol/L; obtained at CEREP (Blanco et al. 2016c)", "description": "as §1"}, "[2]": {"biological_target": "T3, IP (PGI2) (h), agonist radioligand (Homo sapiens, UniProt P43119)", "T3 construct": "CEREP (contract laboratory that ran the assay)", "T3 sequence (P43119 whole entry)": "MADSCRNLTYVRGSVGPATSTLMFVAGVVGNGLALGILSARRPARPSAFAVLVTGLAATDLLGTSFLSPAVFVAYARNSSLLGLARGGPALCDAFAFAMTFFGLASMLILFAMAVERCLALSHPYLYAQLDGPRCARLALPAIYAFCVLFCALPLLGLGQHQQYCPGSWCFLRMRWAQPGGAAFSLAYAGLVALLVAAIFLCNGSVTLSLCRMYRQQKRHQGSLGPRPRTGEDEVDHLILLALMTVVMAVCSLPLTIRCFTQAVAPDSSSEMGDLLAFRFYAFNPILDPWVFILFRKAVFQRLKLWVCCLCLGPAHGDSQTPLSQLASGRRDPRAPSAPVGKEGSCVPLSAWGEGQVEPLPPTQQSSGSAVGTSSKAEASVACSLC", "experiment": "Off-target activity (CEREP), IP", "type": "binding", "conditions": "10 μmol/L; obtained at CEREP (Blanco et al. 2016c); read-out: % Inh IP (PGI2) (h), agonist radioligand", "description": "as §1"}, "[3]": {"biological_target": "T4, FP(h); agonist radioligand (Homo sapiens, UniProt P43088)", "T4 construct": "CEREP (contract laboratory that ran the assay)", "T4 sequence (P43088 whole entry)": "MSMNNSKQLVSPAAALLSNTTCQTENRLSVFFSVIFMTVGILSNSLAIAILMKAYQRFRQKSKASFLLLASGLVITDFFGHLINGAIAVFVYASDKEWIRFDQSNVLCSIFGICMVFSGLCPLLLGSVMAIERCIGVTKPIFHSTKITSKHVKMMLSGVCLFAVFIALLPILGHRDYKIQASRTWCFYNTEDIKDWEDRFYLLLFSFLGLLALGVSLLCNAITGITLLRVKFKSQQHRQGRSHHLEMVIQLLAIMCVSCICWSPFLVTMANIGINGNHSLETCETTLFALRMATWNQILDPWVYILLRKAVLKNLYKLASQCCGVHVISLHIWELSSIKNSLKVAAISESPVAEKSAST", "experiment": "Off-target activity (CEREP), FP", "type": "binding", "conditions": "10 μmol/L; obtained at CEREP (Blanco et al. 2016c)", "description": "as §1"}, "[4]": {"tested_on": "male Lewis rats, MIA injected knee", "parameters": "method as in Blanco et al. 2016b", "conditions": "results published previously, ref Blanco et al. 2016b; cited from earlier work"}, "human EP1 receptor": {"biological_target": "T5, human EP1 receptor (Homo sapiens, UniProt P34995)", "T5 construct": "membrane preparation", "T5 sequence (P34995 1-402)": "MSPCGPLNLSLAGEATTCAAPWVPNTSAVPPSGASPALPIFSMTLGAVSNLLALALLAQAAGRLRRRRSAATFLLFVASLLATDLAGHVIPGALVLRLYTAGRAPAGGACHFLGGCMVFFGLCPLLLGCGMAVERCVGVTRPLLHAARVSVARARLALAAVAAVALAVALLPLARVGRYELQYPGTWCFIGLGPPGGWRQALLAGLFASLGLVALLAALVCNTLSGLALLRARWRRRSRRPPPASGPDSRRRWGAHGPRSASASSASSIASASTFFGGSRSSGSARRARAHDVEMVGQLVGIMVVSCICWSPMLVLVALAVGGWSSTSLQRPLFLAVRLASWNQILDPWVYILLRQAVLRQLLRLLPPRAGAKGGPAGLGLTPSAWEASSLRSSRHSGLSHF", "experiment": "[3H]-PGE2 receptor binding assay, EP1 membranes", "conditions": "HEK293 membranes; [3H]-PGE2; geometric mean ± SEM; read-out: hEP1-4 receptor binding EP1 Ki", "protocol": "Receptor binding assays were done using membrane preparations of HEK 293 cells transfected with various prostanoid receptors using previously published procedure (Nakao et al. 2007). EP1 and EP4 membranes were prepared from recombinant HEK293 cells stably expressing human EPl receptor (GenBank Accession # AY275470, Clone ID PER0100000, UMR cDNA Resource Center, Rolla, MO) or human EP4 receptor. EP2 and EP3 membranes were prepared from HEK293 cells transiently transfected with human EP2 receptor (GenBank Accession # AY275471, Clone ID PER0200000, UMR cDNA Resource Center, Rolla, MO) or human EP3 receptor (GenBank Accession # AY429108, Clone ID PER3VI0000, UMR cDNA Resource Center, Rolla, MO) plasmids. Frozen cell pellets were homogenized in homogenization buffer (10 mmol/L Tris‐HCl, pH7.4, 250 mmol/L sucrose, 1 mmol/L EDTA, 0.3 mmol/L indomethacin and protease inhibitor cocktail with EDTA (Roche Molecular Biochemicals, catalog # 1691498)) using a Teflon/glass homogenizer. After a low speed centrifugation (200g for 15 min at 4°C) the supernatant was subjected to high speed centrifugation (30,000g for 60 min at 4°C). Membrane protein preparation was aliquoted and quick frozen on dry ice prior to storage at −80°C. […] Compounds were tested in a 96‐well format using a three‐fold dilution series to generate 10‐point curves. […] The binding reaction was performed in 200 μL MES buffer (10 mmol/L MES, pH 6.0, 10 mmol/L MgCl2, and l mmol/L EDTA) using polystyrene 96‐well plates. […] The membranes were harvested by filtration (TomTek harvester), washed four times with cold buffer (10 mmol/L MES, pH 6.0, 10 mmol/L MgCl2), dried in a 60°C oven, and the radioactivity was quantified as counts per min (CPM) using a TopCount detector. […] Data were analyzed using a 4‐parameter nonlinear logistic equation. K i Conversion from IC50 Values (K i = […] where [L] is the ligand concentration). Results are expressed as the geometric mean ± standard deviation or geometric mean ± standard error as noted."}}, "data": [{"smiles": "C[C@H](NC(=O)[C@H]1CCCCN1CCOc1ccccc1)c1ccc(C(=O)O)cc1", "note": "[Compound 2]", "values": [{"measurement": "inhibition at 10 µM", "setting": "COX2 (h)", "result": -17, "unit": "%"}, {"measurement": "% Inh TP (TXA2/PGH2) (h); agonist effect", "setting": "[1]", "result": "−2.00", "unit": "%"}, {"measurement": "inhibition at 10 µM", "setting": "[2]", "result": 9, "unit": "%"}, {"measurement": "% Inh FP(h); agonist radioligand", "setting": "[3]", "result": "−9.00", "unit": "%"}]}, {"smiles": "Cc1ccc(N2CCC(O)CC2)nc1C(=O)Nc1c(C)cc(C(=O)O)cc1C", "note": "[Compound 1]", "values": [{"measurement": "inhibition at 10 µM", "setting": "COX2 (h)", "result": -10, "unit": "%"}, {"measurement": "% Inh TP (TXA2/PGH2) (h); agonist effect", "setting": "[1]", "result": "−4.00", "unit": "%"}, {"measurement": "inhibition at 10 µM", "setting": "[2]", "result": -4, "unit": "%"}, {"measurement": "% Inh FP(h); agonist radioligand", "setting": "[3]", "result": "−2.00", "unit": "%"}, {"measurement": "efficacy in rat MIA model of pain", "setting": "[4]", "result": "effective"}]}, {"smiles": "Cc1ccc(-c2cccc(CO)c2)nc1C(=O)Nc1c(C)ccc(C(=O)O)c1C", "note": "[Compound 3]", "values": [{"measurement": "Ki", "setting": "human EP1 receptor", "result": "> 17.5", "unit": "µM"}]}, {"smiles": "C[C@H](NC(=O)c1cc(Cl)ccc1Oc1ccc(F)cc1)c1ccc(C(=O)O)cc1", "note": "[CJ‐042,794, reference compound]", "values": [{"measurement": "Ki", "setting": "human EP1 receptor", "result": "> 26.7", "unit": "µM"}]}]}
